# Reference: patent publication US6943183B2 (Pfizer Inc, priority 2000, dated 2005)
# Target: T1, SF9 affinity purified rat FPT (Rattus norvegicus, UniProt Q02293+Q04631)
# T1 construct: made in house; host or cells: Sf9 insect cells
# Experiment: PFT (FPT) inhibitory activity assay, radiolabeled farnesyl pyrophosphate and biotinyl peptide, streptavidin beads
# Format: biochemical
# Conditions: HEPES buffer pH 7.4, 30° C., 30 minutes; read-out: FTase IC50
# Description: The PFT or FPT inhibitory activity of compounds of the present invention were assayed in HEPES buffer (pH 7.4) containing 5 mM potassium phosphate and 20 μM ZnCl2. The solution also contained 5 mM DTT (dithiothreitol), 5 mM MgCl2, and 0.1% PEG 8000. Assays were performed in 96 well plates (Wallec) and employed solutions composed of varying concentrations of a compound of the present invention in 10% DMSO (dimethylsulfoxide). […] After incubation at 30° C. for 30 minutes, the reaction was terminated by diluting the reaction 2.5-fold with a stop buffer containing 1.5 M magnesium acetate, 0.2 M H3PO4, 0.5% BSA (bovine serum albumin), and strepavidin beads (Amersham) at a concentration of 1.3 mg/mL. […] The assay was also carried out without 5 mM potassium phosphate.
row,Structure (SMILES),IC50
1,"O=C1CCCc2c1ccc(O[C@H](Cn1ccnc1)c1ccccc1)c2CNS(=O)(=O)c1ccc2ccccc2c1 [Compound 42f, Naphthalene-2-sulfonic acid [2-((S)-2-imidazol-1-yl-1-phenyl-ethoxy)-5-oxo-5,6,7,8-tetrahydro-naphthalen-1-ylmethyl]-amide; compound with trifluoro-acetic acid]",4 nM
2,O=C1CCCc2c1ccc(O[C@H](Cn1ccnc1)c1ccccc1)c2CNS(=O)(=O)Cc1ccccc1 [Compound 42g],1.5 nM
3,"O=C(NCc1c(O[C@H](Cn2ccnc2)c2ccccc2)ccc2c1CCCC2=O)c1ccccn1 [Compound 42h, Pyridine-2-carboxylic acid [2-((S)-2-imidazol-1-yl-1-phenyl-ethoxy)-5-oxo-5,6,7,8-tetrahydro-naphthalen-1-ylmethyl]-amide]",8 nM
4,"O=C(NCc1c(O[C@H](Cn2ccnc2)c2ccccc2)ccc2c1CCCC2=O)c1ccccc1 [Compound 42i, N-[2-((S)-2-Imidazol-1-yl-1-phenyl-ethoxy)-5-oxo-5,6,7,8-tetrahydro-naphthalen-1-ylmethyl]-benzamide]",1.5 nM
5,"CSCC[C@H](NC(=O)OC(C)(C)C)C(=O)NCc1c(O[C@H](Cn2ccnc2)c2ccccc2)ccc2c1CCCC2=O [Compound 42j, ((S)-1-{[2-((S)-2-Imidazol-1-yl-1-phenyl-ethoxy)-5-oxo-5,6,7,8-tetrahydro-napthalen-1-ylmethyl]-carbamoyl}-3-methylsulfanyl-propyl)-carbamic acid tert-butyl ester]",4.4 nM
6,"CSCC[C@H](N)C(=O)NCc1c(O[C@H](Cn2ccnc2)c2ccccc2)ccc2c1CCCC2=O [Compound 42k, (S)-2-Amino-N-[2-((S)-2-imidazol-1-yl-1-phenyl-ethoxy)-5-oxo-5,6,7,8-tetrahydro-naphthalen-1-ylmethyl]-4-methylsulfanyl-butyramide]",16 nM
7,"O=C1CCCc2c1ccc(O[C@H](Cn1ccnc1)c1ccccc1)c2CN1C(=O)c2ccccc2C1=O [Compound 43, 2-{[2-((1S)-2-imidazolyl-1-phenylethoxy)-5-oxo-6,7,8-trihydronaphenyl]methyl}isoindoline-1,3-dione]",1.7 nM
8,"O=C1CCCc2c1ccc(O[C@H](Cn1ccnc1)c1ccccc1)c2CCc1ccsc1 [Compound 44a, 6-((S)-2-Imidazol-1-yl-1-phenyl-ethoxy)-5-(2-thiophen-3-yl-ethyl)-3,4-dihydro-2H-naphthalen-1-one]",0.87 nM
9,"O=C1CCCc2c1ccc(O[C@H](Cn1ccnc1)c1ccccc1)c2CCCc1ccccc1 [Compound 44b, 6-((S)-2-Imidazol-1-yl-1-phenyl-ethoxy)-5-(3-phenyl-propyl)-3,4-dihydro-2H-naphthalen-1-one]",3.1 nM
10,"O=C1CCCc2c1ccc(O[C@H](Cn1ccnc1)c1ccccc1)c2Cc1ccccc1 [Compound 45, 6-((1S)-2-imidazolyl-1-phenylethoxy)-5-benzyl-2,3,4-trihydro-naphthalen-one]",2 nM
11,"O=C1CCCc2c1ccc(O[C@H](Cn1ccnc1)c1ccccc1)c2Oc1ccccc1 [Compound 46, 6-((1S)-2-imidazolyl-1-phenylethoxy)-5-phenoxy-2,3,4-trihydronaphthalen-1-one]",37 nM
12,"O=C1CCC(c2cccc(Cl)c2)c2cc(O[C@H](Cn3ccnc3)c3ccccc3)ccc21 (stereo partly drawn) [Compound 47, 6-((1S)-2-Imidazolyl-1-phenylethoxy)-4-(3-chlorophenyl)-2,3,4-trihydronaphthalen-1-one]",2 nM
13,"CCCc1c(OC(Cn2ccnc2)c2ccccc2)ccc2c1CCCC2=O (stereo not shown) [Compound 50, 6-(2-Imidazolyl-1-phenylethoxy)-5-propyl-2,3,4-trihydro-naphthalen-1-one]",8 nM
14,"C=CCc1c(O[C@H](Cn2ccnc2)c2ccccc2)ccc2c1CCCC2=O [Compound 51, 6-((1S)-2-Imidazolyl-1-phenylethoxy)-5-prop-2-enyl-2,3,4-trihydronaphthalen-1-one]",3 nM
15,CCCc1c(O[C@H](Cn2ccnc2)c2ccccc2)ccc2c1CCCC2=O [Compound 53],5 nM
16,"C=C(C)Cc1c(O[C@H](Cn2ccnc2)c2ccccc2)ccc2c1CCCC2=O [Compound 54, 6-((1S)-2-Imidazolyl-1-phenylethoxy)-5-(2-methylprop-2-enyl)-2,3,4-trihydronaphthalen-1-one]",5 nM
17,"CC(C)Cc1c(O[C@H](Cn2ccnc2)c2ccccc2)ccc2c1CCCC2=O [Compound 55, 6-((1S)-2-Imidazolyl-1-phenylethoxy)-5-(2-methylpropyl)-2,3,4-trihydronaphthalen-1-one]",1 nM
18,C=CCc1c(O[C@H](Cn2ccnc2)c2ccccc2)ccc2c1CCC2=O [Compound 56],15 nM
19,"CC(C)(Cn1ccnc1)Oc1ccc2c(c1CCc1ccccc1)CCCC2=O [Compound 58a, 6-[2-(1H-Imidazol-1-yl)-1,1-dimethylethoxy]-5-(2-phenylethyl)-3,4-dihydro-1(2H)-naphthalenone]",1.6 nM

row,Structure (SMILES),IC50
1,"CCCc1c(S[C@H](Cn2ccnc2)c2ccccc2)ccc2c1CCCC2=O [Compound 62, 6-((1S)-2-imidazolyl-1-phenylethylthio)-5-propyl-2,3,4-trihydronaphthalen-1-one]",10 nM
2,O=C1CCCc2c1ccc(S[C@H](Cn1ccnc1)c1ccccc1)c2CCc1ccccc1 [Compound 63],0.2 nM
3,"CC(C)S(=O)(=O)Cc1c(O[C@H](Cn2ccnc2)c2cccnc2)ccc2c1CCCC2=O [Compound 63b, 6-((S)-2-Imidazol-1-yl-1-pyridin-3-yl-ethoxy)-5-(propane-2-sulfonylmethyl)-3,4-dihydro-2H-napthalen-1-one]",0.94 nM
4,"O=C1CCCc2c1ccc(O[C@H](Cn1ccnc1)c1cccnc1)c2CS(=O)(=O)c1ccccn1 [Compound 63ba, 6-((S)-2-Imidazol-1-yl-1-pyridin-3-yl-ethoxy)-5-(pyridin-2-ylsulfonylmethyl)-3,4-dihydro-2H-napthalen-1-one]",0.16 nM
5,O=C1CCCc2c1ccc(O[C@H](Cn1ccnc1)c1cccnc1)c2CCc1ccccn1 [Compound 63c],0.3 nM
6,"O=C1CCCc2c1ccc(O[C@H](Cn1ccnc1)c1cccnc1)c2NC(=O)c1nccc2ccccc12 [Compound 63d, Isoquinoline-1-carboxylic acid [2-((S)-2-imidazol-1-yl-1-pyridin-3-yl-ethoxy)-5-oxo-5,6,7,8-tetrahydro-naphthalen-1-yl]-amide]",0.17 nM
7,"O=C(Nc1c(O[C@H](Cn2ccnc2)c2cccnc2)ccc2c1CCCC2=O)c1cnccn1 [Compound 63e, Pyrazine-2-carboxylic acid [2-((S)-2-imidazol-1-yl-1-pyridin-3-yl-ethoxy)-5-oxo-5,6,7,8-tetrahydro-naphthalen-1-yl]-amide]",9.7 nM
8,"O=C1CCCc2c1ccc(O[C@H](Cn1ccnc1)c1cccnc1)c2NC(=O)c1cnnc2ccccc12 [Compound 63f, Cinnoline-4-carboxylic acid [2-((S)-2-imidazol-1-yl-1-pyridin-3-yl-ethoxy)-5-oxo-5,6,7,8-tetrahydro-naphthalen-1-yl]-amide]",13 nM
9,"CC(C)[C@@H](Cn1ccnc1)Oc1ccc2c(c1CS(=O)(=O)C(C)C)CCCC2=O [Compound 63g, 6-((S)-1-Imidazol-1-ylmethyl-2-methyl-propoxy)-5-(propane-2-sulfonylmethyl)-3,4-dihydro-2H-napthalen-1-one]",9.5 nM
10,"CC(C)[C@@H](Cn1ccnc1)Oc1ccc2c(c1NC(=O)c1nccc3ccccc13)CCCC2=O [Compound 63h, Isoquinoline-1-carboxylic acid [2-((S)-1-imidazol-1-ylmethyl-2-methyl-propoxy)-5-oxo-5,6,7,8-tetrahydro-naphthalen-1-yl]-amide]",2.5 nM
11,"O=C1CCCc2c1ccc(O[C@H](Cn1ccnc1)c1ccc(F)cc1F)c2CS(=O)(=O)c1ccccn1 [Compound 63j, (S)-6-[-1-(2,4-Difluoro-phenyl)-2-imidazol-1-yl-1-ethoxy]-5-(pyridin-2-ylsulfonylmethyl)-3,4-dihydro-2H-naphthalen-1-one]",1.5 nM
12,"CC(C)C(Cn1ccnc1)Oc1ccc2c(c1CS(=O)(=O)c1ccccc1)CCCC2=O (stereo not shown) [Compound 63l, 6-[1-(1H-Imidazol-1-ylmethyl)-2-methylpropoxy]-5-[(phenylsulfonyl)methyl]-3,4-dihydro-1(2H)-naphthalenone]",5.5 nM
13,"CCCCC(Cn1ccnc1)Oc1ccc2c(c1CS(=O)(=O)c1ccccc1)CCCC2=O (stereo not shown) [Compound 63m, 6-{[1-(1H-Imidazol-ylmethyl)pentyl]oxy}-5-[(phenylsulfonyl)methyl]-3,4-dihydro-1(2H)-naphthalenone]",1 nM
14,"CCC(Cn1ccnc1)Oc1ccc2c(c1CS(=O)(=O)c1ccccc1)CCCC2=O (stereo not shown) [Compound 63n, 6-[1-(1H-Imidazol-1-ylmethyl)propoxy]-5-[(phenylsulfonyl)methyl]-3,4-dihydro-1(2H)-naphthalenone]",7 nM
15,"O=C1CCCc2c1ccc(OC(Cn1ccnc1)c1cccs1)c2CS(=O)(=O)c1ccccn1 (stereo not shown) [Compound 63p, 6-(2-Imidazol-yl-1-thiophen-2-yl-ethoxy)-5-(pyridine-2-sulfonylmethyl)-3,4-dihydro-2H-naphthalen-1-one]",0.55 nM
16,"O=C1CCCc2c1ccc(OC(Cn1ccnc1)c1nccs1)c2CS(=O)(=O)c1ccccn1 (stereo not shown) [Compound 63q, 6-(2-Imidazol-1-yl-1-thiazol-2-yl-ethoxy)-5-(pyridine-2-sulfonylmethyl)-3,4-dihydro-2H-naphthalen-1-one]",0.5 nM
17,COCc1c(O[C@H](Cn2ccnc2)c2ccccc2)ccc2c1CCCC2=O [Compound 64],11 nM
18,COc1ccc(OCc2c(O[C@H](Cn3ccnc3)c3ccccc3)ccc3c2CCCC3=O)cc1 [Compound 65],0.4 nM
